Source: US11267825B2 (AICURIS GMBH & CO. KG, priority 2017, dated 2022)

Experiments:
HBV = experiment: Determination of HBV DNA from the supernatants of HepAD38 cells (anti-HBV activity); assay type: cell-based, hepatitis B virus; settings: Hepatitis B virus, 144 h; HBV DNA in HepAD38 supernatant at day 6; read-out: Cell Activity (EC50)
Experimental: Determination of HBV DNA from the Supernatants of HepAD38 Cells
The anti-HBV activity was analysed in the stable transfected cell line HepAD38, which has been described to secrete high levels of HBV virion particles (Ladner et al., 1997). In brief, HepAD38 cells were cultured at 37° C. at 5% CO2 and 95% humidity in 200 μl maintenance medium, which was Dulbecco's modified Eagle's medium/Nutrient Mixture F-12 (Gibco, Karlsruhe), 10% fetal bovine serum (PAN Biotech Aidenbach) supplemented with 50 μg/ml penicillin/streptomycin (Gibco, Karlsruhe), 2 mM L-glutamine (PAN Biotech, Aidenbach), 400 μg/ml G418 (AppliChem, Darmstadt) and 0.3 μg/ml tetracycline. Cells were subcultured once a week in a 1:5 ratio, but were usually not passaged more than ten times. For the assay 60,000 cells were seeded in maintenance medium without any tetracycline into each well of a 96-well plate and treated with serial half-log dilutions of test compound. To minimize edge effects the outer 36 wells of the plate were not used but were filled with assay medium. On each assay plate six wells for the virus control (untreated HepAD38 cells) and six wells for the cell control (HepAD38 cells treated with 0.3 μg/ml tetracycline) were allocated, respectively. In addition, one plate set with reference inhibitors like BAY 41-4109, entecavir, and lamivudine instead of screening compounds were prepared in each experiment. In general, experiments were performed thrice in triplicates. At day 6 HBV DNA from 100 μl filtrated cell culture supernatant (AcroPrep Advance 96 Filter Plate, […] Supor membran, PALL GmbH, Dreieich) was automatically purified on the MagNa Pure LC instrument using the MagNA Pure 96 DNA and Viral NA Small Volume Kit (Roche Diagnostics, Mannheim) according to the instructions of the manufacturer. EC50 values were calculated from relative copy numbers of HBV DNA. In brief, 5 μl of the 100 μl eluate containing HBV DNA were subjected to PCR LC480 Probes Master Kit (Roche) together with 1 μM antisense primer […], 0.5 μM sense primer […], 0.3 μM hybprobes […]-FL and LC640-[…]-PH (TIBMolBiol, Berlin) to a final volume of 12.5 μl. The PCR was performed on the Light Cycler 480 real time system (Roche Diagnostics, Mannheim) using the following protocol: Pre-incubation for 1 min at 95° C., amplification: 40 cycles×(10 sec at 95° C., 50 sec at 60° C., 1 sec at 70° C.), cooling for 10 sec at 40° C. Viral load was quantitated against known standards using HBV plasmid DNA of pCH-9/3091 (Nassal et al., 1990, Cell 63: 1357-1363) and the LightCycler 480 SW 1.5 software (Roche Diagnostics, Mannheim) and EC50 values were calculated using non-linear regression with GraphPad Prism 6 (GraphPad Software Inc., La Jolla, USA).

HBV core protein = HBV core protein (UniProt P03146); assay type: biochemical; settings: read-out: Assembly Activity (IC50); BODIPY-FL labelled core protein, assembly started with NaCl, read after 6 min
Sequence of HBV core protein (P03146 whole entry, looked up): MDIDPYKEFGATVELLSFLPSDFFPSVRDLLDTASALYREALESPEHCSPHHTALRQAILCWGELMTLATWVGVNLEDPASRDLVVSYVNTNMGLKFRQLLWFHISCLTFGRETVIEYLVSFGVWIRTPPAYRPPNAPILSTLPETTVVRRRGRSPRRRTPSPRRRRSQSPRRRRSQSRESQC
Experimental: Biochemical Capsid Assembly Assay
The screening for assembly effector activity was done based on a fluorescence quenching assay published by Zlotnick et al. (2007). The C-terminal truncated core protein containing 149 amino acids of the N-terminal assembly domain was fused to a unique cysteine residue at position 150 and was expressed in E. coli using the pET expression system (Merck Chemicals, Darmstadt). Purification of core dimer protein was performed using a sequence of size exclusion chromatography steps. In brief, the cell pellet from 1 L BL21 (DE3) Rosetta2 culture expressing the coding sequence of core protein cloned NdeI/XhoI into expression plasmid pET21b was treated for 1 h on ice with a native lysis buffer (Qproteome Bacterial Protein Prep Kit; Qiagen, Hilden). After a centrifugation step the supernatant was precipitated during 2 h stirring on ice with 0.23 g/ml of solid ammonium sulfate. Following further centrifugation the resulting pellet was resolved in buffer A (100 mM Tris, pH 7.5; 100 mM NaCl; 2 mM DTT) and was subsequently loaded onto a buffer A equilibrated CaptoCore 700 column (GE HealthCare, Frankfurt). The column flow through containing the assembled HBV capsid was dialyzed against buffer N (50 mM NaHCO3 pH 9.6; 5 mM DTT) before urea was added to a final concentration of 3M to dissociate the capsid into core dimers for 1.5 h on ice. The protein solution was then loaded onto a 1 L Sephacryl S300 column. After elution with buffer N core dimer containing fractions were identified by SDS-PAGE and subsequently pooled and dialyzed against 50 mM HEPES pH 7.5; 5 mM DTT. To improve the assembly capacity of the purified core dimers a second round of assembly and disassembly starting with the addition of 5 M NaCl and including the size exclusion chromatography steps described above was performed. From the last chromatography step core dimer containing fractions were pooled and stored in aliquots at concentrations between 1.5 to 2.0 mg/ml at −80° C.
Immediately before labelling the core protein was reduced by adding freshly prepared DTT in a final concentration of 20 mM. After 40 min incubation on ice storage buffer and DTT was removed using a Sephadex G-25 column (GE HealthCare, Frankfurt) and 50 mM HEPES, pH 7.5. For labelling 1.6 mg/ml core protein was incubated at 4° C. and darkness overnight with BODIPY-FL maleimide (Invitrogen, Karlsruhe) in a final concentration of 1 mM. After labelling the free dye was removed by an additional desalting step using a Sephadex G-25 column. Labelled core dimers were stored in aliquots at 4° C. In the dimeric state the fluorescence signal of the labelled core protein is high and is quenched during the assembly of the core dimers to high molecular capsid structures. The screening assay was performed in black 384 well microtiter plates in a total assay volume of 10 μl using 50 mM HEPES pH 7.5 and 1.0 to 2.0 μM labelled core protein. Each screening compound was added in 8 different concentrations using a 0.5 log-unit serial dilution starting at a final concentration of 100 μM, 31.6 μM or 10 μM. In any case the DMSO concentration over the entire microtiter plate was 0.5%. The assembly reaction was started by the injection of NaCl to a final concentration of […] which induces the assembly process to approximately 25% of the maximal quenched signal. 6 min after starting the reaction the fluorescence signal was measured using a Clariostar plate reader (BMG Labtech, Ortenberg) with an excitation of 477 nm and an emission of 525 nm. As 100% and 0% assembly control HEPES buffer containing 2.5 M and 0 M NaCl was used. Experiments were performed thrice in triplicates. EC50 values were calculated by non-linear regression analysis using the Graph Pad Prism 6 software (GraphPad Software, La Jolla, USA).

## Nc1nc2c(s1)CN(C(=O)c1cc3c(F)c(F)ccc3[nH]1)CC2 [Example 172, 5-(4,5-difluoro-1H-indole-2-carbonyl)-4H,5H,6H,7H-[1,3]thiazolo[5,4-c]pyridin-2-amine]
HBV
  EC50: < 1 µM
HBV core protein
  IC50: < 5 µM

## Cc1nc2c(s1)CN(C(=O)c1cc3c(Cl)cccc3[nH]1)CC2 [Example 211, 4-chloro-2-{2-methyl-4H,5H,6H,7H-[1,3]thiazolo[5,4-c]pyridine-5-carbonyl}-1H-indole]
HBV
  EC50: < 1 µM
HBV core protein
  IC50: < 5 µM

## COc1cccc2cc(C(=O)N3CCc4nc(N)sc4C3)[nH]c12 [Example 153, 5-(7-methoxy-1H-indole-2-carbonyl)-4H,5H,6H,7H-[1,3]thiazolo[5,4-c]pyridin-2-amine]
HBV
  EC50: < 100 µM
HBV core protein
  IC50: < 100 µM

## Cc1ccc2[nH]c(C(=O)N3CCc4nc(N)sc4C3)cc2c1C [Example 136, 5-(4,5-dimethyl-1H-indole-2-carbonyl)-4H,5H,6H,7H-[1,3]thiazolo[5,4-c]pyridin-2-amine]
HBV
  EC50: 1 to 10 µM
HBV core protein
  IC50: 5 to 10 µM

## O=C(c1cc2c(C(F)F)cc(F)cc2[nH]1)N1CCc2nc(NCC3CCOC3)sc2C1 (centres unmarked) [Example 326, 5-[4-(difluoromethyl)-6-fluoro-1H-indole-2-carbonyl]-N-[(oxolan-3-yl)methyl]-4H,5H,6H,7H-[1,3]thiazolo[5,4-c]pyridin-2-amine]
HBV
  EC50: < 1 µM
HBV core protein
  IC50: < 5 µM

## O=C(c1cc2ccccc2[nH]1)N1CCc2nc(NC(CO)C3CCOC3)sc2C1 (centres unmarked) [Example 297, 2-{[5-(1H-indole-2-carbonyl)-4H,5H,6H,7H-[1,3]thiazolo[5,4-c]pyridin-2-yl]amino}-2-(oxolan-3-yl)ethan-1-ol]
HBV
  EC50: < 1 µM
HBV core protein
  IC50: < 5 µM

## O=C(c1cc2ccccc2[nH]1)N1CCc2nc(NC3CCOCC3)sc2C1 [Example 206, 5-(1H-indole-2-carbonyl)-N-(oxan-4-yl)-4H,5H,6H,7H-[1,3]thiazolo[5,4-c]pyridin-2-amine]
HBV
  EC50: < 1 µM
HBV core protein
  IC50: < 5 µM

## NC(=O)CNc1nc2c(s1)CN(C(=O)c1cc3ccccc3[nH]1)CC2 [Example 278, 2-{[5-(1H-indole-2-carbonyl)-4H,5H,6H,7H-[1,3]thiazolo[5,4-c]pyridin-2-yl]amino}acetamide]
HBV
  EC50: 1 to 10 µM
HBV core protein
  IC50: < 100 µM

## Cc1ccc(F)c2[nH]c(C(=O)N3CCc4nc(N)sc4C3)cc12 [Example 86, 5-(7-fluoro-4-methyl-1H-indole-2-carbonyl)-4H,5H,6H,7H-[1,3]thiazolo[5,4-c]pyridin-2-amine]
HBV
  EC50: < 1 µM
HBV core protein
  IC50: < 5 µM

## O=C(Nc1nc2c(s1)CN(C(=O)c1cc3ccccc3[nH]1)CC2)C1CCC(O)CC1 (centres unmarked) [Example 411, 4-hydroxy-N-[5-(1H-indole-2-carbonyl)-4H,5H,6H,7H-[1,3]thiazolo[5,4-c]pyridin-2-yl]cyclohexane-1-carboxamide]
HBV
  EC50: < 1 µM
HBV core protein
  IC50: < 5 µM

## O=C(c1cc2c(Cl)cccc2[nH]1)N1CCc2nc(NC3(CO)CCC3)sc2C1 [Example 224, (1-{[5-(4-chloro-1H-indole-2-carbonyl)-4H,5H,6H,7H-[1,3]thiazolo[5,4-c]pyridin-2-yl]amino}cyclobutyl)methanol]
HBV
  EC50: < 1 µM
HBV core protein
  IC50: < 5 µM

## CN1CCOC(CNc2nc3c(s2)CN(C(=O)c2cc4ccccc4[nH]2)CC3)C1 (centres unmarked) [Example 23, 5-(1H-indole-2-carbonyl)-N-[(4-methylmorpholin-2-yl)methyl]-4H,5H,6H,7H-[1,3]thiazolo[5,4-c]pyridin-2-amine]
HBV
  EC50: 1 to 10 µM
HBV core protein
  IC50: 5 to 10 µM

## O=C(c1cc2ccccc2[nH]1)N1CCc2nc(NC[C@@H]3C[C@@H]4CC[C@H]3O4)sc2C1 (racemic) [Example 33, (+/−)-trans-5-(1H-indole-2-carbonyl)-N-{[(1R,2S,4S)-7-oxabicyclo[2.2.1]heptan-2-yl]methyl}-4H,5H,6H,7H-[1,3]thiazolo[5,4-c]pyridin-2-amine]
HBV
  EC50: < 1 µM
HBV core protein
  IC50: < 5 µM

## O=C(c1cc2c(Cl)c(F)ccc2[nH]1)N1CCc2nc(NCC3(O)CCC3)sc2C1 [Example 362, 1-({[5-(4-chloro-5-fluoro-1H-indole-2-carbonyl)-4H,5H,6H,7H-[1,3]thiazolo[5,4-c]pyridin-2-yl]amino}methyl)cyclobutan-1-ol]
HBV
  EC50: < 1 µM
HBV core protein
  IC50: < 5 µM

## CC1(C(=O)Nc2nc3c(s2)CN(C(=O)c2cc4ccccc4[nH]2)CC3)CC1 [Example 274, N-[5-(1H-indole-2-carbonyl)-4H,5H,6H,7H-[1,3]thiazolo[5,4-c]pyridin-2-yl]-1-methylcyclopropane-1-carboxamide]
HBV
  EC50: < 1 µM
HBV core protein
  IC50: < 5 µM

## C#Cc1cccc2[nH]c(C(=O)N3CCc4nc(N)sc4C3)cc12 [Example 14, 5-(4-ethynyl-1H-indole-2-carbonyl)-4H,5H,6H,7H-[1,3]thiazolo[5,4-c]pyridin-2-amine]
HBV
  EC50: 1 to 10 µM
HBV core protein
  IC50: < 100 µM

## Nc1nc2c(s1)CN(C(=O)c1cc3cc(F)cc(F)c3[nH]1)CC2 [Example 160, 5-(5,7-difluoro-1H-indole-2-carbonyl)-4H,5H,6H,7H-[1,3]thiazolo[5,4-c]pyridin-2-amine]
HBV
  EC50: < 1 µM
HBV core protein
  IC50: < 5 µM

## O=C(c1cc2ccccc2[nH]1)N1CCc2nc(NC3(c4c[nH]nn4)CC(F)(F)C3)sc2C1 [Example 430, N-[3,3-difluoro-1-(1H-1,2,3-triazol-4-yl)cyclobutyl]-5-(1H-indole-2-carbonyl)-4H,5H,6H,7H-[1,3]thiazolo[5,4-c]pyridin-2-amine]
HBV
  EC50: < 1 µM
HBV core protein
  IC50: < 5 µM

## Nc1nc2c(s1)CN(C(=O)c1cc3c(C4CC4)cccc3[nH]1)CC2 [Example 82, 5-(4-cyclopropyl-1H-indole-2-carbonyl)-4H,5H,6H,7H-[1,3]thiazolo[5,4-c]pyridin-2-amine]
HBV
  EC50: 1 to 10 µM
HBV core protein
  IC50: 5 to 10 µM
